# Data reported in patent publication US20100197600A1, “USE OF THE PEPTIDE HIS-SER-LEU-GLY-LYS-TRP-LEU-GLY-HIS-PRO-ASP-LYS-PHE ALONE OR IN COMBINATION WITH THE PEPTIDE PRO-GLY-THR-CYS-GLU-ILE-CYS-ALA-TYR-ALA-ALA-CYS-THR-GLY-CYS-OH AS A THERAPEUTIC AGENT” (priority 2007, published 2010).
# No end group written: not given here.
# Assays:
# HIV-1IIIB = assay: HIV-1 antiviral (cytopathic effect) assay in CEM-SS cells; conditions: for antiviral activity of positive control compounds: HIV-1IIIB in CEM-SS cells; for reduction of the cytopathic effect (CPE) in HIV-1 infected CEM-SS cells: 10 micrograms per ml, HIV-1IIIB, MTS readout
# HCMV strain AD169 = assay: HCMV plaque formation assay in MRC-5 cells; conditions: for inhibition of HCMV plaque formation as compared to the virus control experiment: 10 micrograms per ml, MRC-5 cells, 7-10 days
# murine spleen cells = assay: Th1/Th2 cytokine profiling assay; format: cell-based, mouse; conditions: 10 micrograms per ml; Ovalbumin-restimulated murine spleen cells; 72 hours
# Streptococcus pneumoniae = Streptococcus pneumoniae assay; conditions: 10 micrograms per ml; visual reading
# HUVEC = assay: Endothelial tube formation assay; format: cell-based, human; conditions: 10 micrograms per ml, 20 hours
# Excerpt: Positive control wes vehicle only.
# [1] = system: hepatitis B virus (HBV) ayw strain; assay: HBV experimental assay system (secreted HBV DNA, TaqMan PCR); format: cell-based; conditions: 10 micrograms per ml; HepG2-2.2.15 cells; HBV DNA after six days
# [2] = system: Primary Human endothelial cells (HUVEC); assay: Endothelial cell migration assay; format: cell-based; conditions: 10 micrograms per ml, 22 hours
Molecule,antiviral activity of positive control compounds (HIV-1IIIB),"antiviral activity of positive control compound (HCMV strain AD169; positive control, HCMV in MRC-5 cells)",change of the production of IL-5 (murine spleen cells),decrease of the production of IFN-γ (murine spleen cells),increase (induction) of the production of TNF-α (murine spleen cells),increase of the production of IL-2 (murine spleen cells),increase of the production of IL-4 (murine spleen cells),inhibition of the growth of Streptococcus pneumoniae (Streptococcus pneumoniae),inhibition of the tube formation of human endothelial cells (HUVEC),inhibition of HCMV plaque formation as compared to the virus control experiment (HCMV strain AD169),inhibition of HBV replication as compared to the virus control infection [1],reduction of the cytopathic effect (CPE) in HIV-1 infected CEM-SS cells (HIV-1IIIB),inhibition of the migration of human endothelial cells [2]
"Cc1cn([C@H]2C[C@H](N=[N+]=[N-])[C@@H](CO)O2)c(=O)[nH]c1=O [AZT, zidovudine, reference compound]",expected levels of antiviral activity,–,–,–,–,–,–,–,–,–,–,–,–
"Nc1nc(O)c2ncn(COC(CO)CO)c2n1 [Ganciclovir, reference compound]",–,expected levels of antiviral activity,–,–,–,–,–,–,–,–,–,–,–
"CC(C)(C)NC(=O)[C@@H]1CN(Cc2cccnc2)CCN1C[C@@H](O)C[C@@H](Cc1ccccc1)C(=O)N[C@H]1c2ccccc2C[C@H]1O [indinavir, reference compound]",expected levels of antiviral activity,–,–,–,–,–,–,–,–,–,–,–,–
His-Ser-Leu-Gly-Lys-Trp-Leu-Gly-His-Pro-Asp-Lys-Phe (HSLGKWLGHPDKF; printed: His-Ser-Leu-Gly-Lys-Trp-Leu-Gly-His-Pro-Asp-Lys-Phe) [Peptide 1],–,–,did not significantly change,did not significantly change,21.2%,106.5%,117.8%,100%,10%,did not inhibit,43.4%,43.9%,12%
Pro-Gly-Thr-Cys-Glu-Ile-Cys-Ala-Tyr-Ala-Ala-Cys-Thr-Gly-Cys-OH (PGTCEICAYAACTGC-OH; cysteine pairing not given here) [Peptide 2],–,–,did not significantly change,38%,did not significantly change,35.5%,43.8%,no effect,10%,did not inhibit,21.7%,13.2%,24%
